From US9636324B2, “Use of 15-benzylidence-14-deoxy-11, 12 -dehyroandrographolide derivative in manufacture of medicaments for protecting liver and anti-hepatitis C virus” (Zhengzhou University, priority 2012, dated 2017)

What was measured:
MDBK (NBL-1) cells = test: MTT assay for cytotoxicity; assay type: cell-based, bovine; conditions: 0-7.5 μmol/L, 48 h
Experimental: The drug-containing medium is added and further incubated for 48 h. MTT is added (5 mg/mL) at 20 μL/well and cultured for 4 h, the supernatant is discarded and 150 μL DMSO is added, then the plate is shaken for 10 minutes and the absorbance is determined using a microplate reader using the wavelength 570 nm and a reference wavelength 450 nm. The cell survival rate is calculated after treatment of compounds: cell survival rate (%)=drug group A value/cell control group A value×100%, and the results are shown in FIG. 10. Cell proliferation inhibition rate (%)=100%−survival rate (%), half maximal (50%) toxic concentration (TC50) is calculated according to Reed-Muench method.

[1] = system: mice with carbon tetrachloride induced liver damage; test: Carbon tetrachloride induced chemical liver damage model in mice; assay type: in vivo, Kunming mice
Experimental: Kunming mice of clean grade (male, weight 20±2 g), after adaptively fed for 3 days, are randomly divided into normal group, model group, bifendate positive control group (200 mg/kg), AD group (0.88 mmol/kg), low dosage group (0.66 mmol/kg) and high dosage group (0.88 mmol/kg) of compound A, B, C and D, with 8 mice in each group. Positive group and each test group are intragastrically given with respective suspension prepared with 0.5% CMC-Na, and normal group and model group are given with 0.5% CMC-Na. The drugs are given for 3 days, and 1 h after the last administration, all mice except those in the normal group are intraperitoneally injected with a single dose of 0.3% carbon tetrachloride in peanut oil (0.1 mL/10 g). After 16 h, the eyeball of the mice in each group is enucleated to collect blood, which is centrifuged at 3000 rpm for 15 min to separate serum. ALT and AST activities are tested respectively (Nanjing Jiancheng Bioengineering Institute). The left lobe of liver is taken to prepare 10% homogenate using physiological saline, MDA (Nanjing Jiancheng Bioengineering Institute) and PGE2 contents are determined. Experimental data are expressed as average±standard deviation (X±s), analyzed with SPSS 11.5 statistic software, with P<0.05 meaning there is a significant difference. Other agents, drugs and experimental methods are the same as in EXAMPLE 1. In experimental investigation of both models, the following grouping method is used: Kunming mice of clean grade (male, weight 20±2 g) are randomly divided into normal group, model group, bifendate group (200 mg/kg), AD group (0.88 mmol/kg), low dosage group (0.66 mmol/kg) and high dosage group (0.88 mmol/kg) of compound E, with 8 mice in each group. Other agents, drugs and experimental methods are the same as in EXAMPLE 1 and in EXAMPLE 4, respectively.

[2] = dosage groups not distinguished (0.66 and 0.88 mmol/kg), P<0.01
[3] = dosage groups not distinguished, P<0.01
[4] = high dosage 0.88 mmol/kg vs AD 0.88 mmol/kg, P<0.05
[5] = high dosage 0.88 mmol/kg, P<0.05
[6] = low dosage 0.66 mmol/kg vs AD 0.88 mmol/kg, P<0.05

## C=C1CCC2C(C)(CO)C(O)CCC2(C)C1C=CC1=CC(=Cc2ccc(Cl)cc2)OC1=O (stereo not shown) [Compound A]
MDBK (NBL-1) cells
  cytotoxicity to MDBK cells: do not show obvious cytotoxcity
[1]; [2]
  ALT activity in serum vs model group: notably suppress the increase
  AST activity in serum vs model group: notably suppress the increase
[1]; [3]
  MDA level in liver homogenate vs model group: effectively reduce
  PGE2 level in liver homogenate vs model group: effectively reduce
[1]; [4]
  magnitude of decrease in ALT activity compared to AD group: significantly better
  magnitude of decrease in AST activity compared to AD group: significantly better
[1]; [5]
  PGE2 content compared to AD group: notably lower
  ability to reduce lipid peroxide level in liver homogenate compared to AD group: stronger ability to reduce the lipid peroxide level
[1]; [6]
  magnitude of decrease in ALT activity compared to AD group: significantly better
  magnitude of decrease in AST activity compared to AD group: significantly better
[1]; low dosage 0.66 mmol/kg, P<0.05
  ability to reduce lipid peroxide level in liver homogenate compared to AD group: stronger ability to reduce the lipid peroxide level
[1]; mice, intragastric, 3 days
  protective effect against liver damage induced by carbon tetrachloride (summary): protective effect
